According to ChEMBL document CHEMBL1125859, “Synthesis and evaluation of antiinflammatory activities of a series of corticosteroid 17 alpha-esters containing a functional group” (J Med Chem, 1991):

species: Rattus norvegicus; assay: The thymolytic activity was measured relative to clobetasol propionate (CP=1) in rat granuloma pouch assay system; assay type: functional

SMILES | Thymolysis
CCC(=O)O[C@]1(C(=O)CCl)[C@@H](C)C[C@H]2[C@@H]3CCC4=CC(=O)C=C[C@]4(C)[C@@]3(F)[C@@H](O)C[C@@]21C [CLOBETASOL PROPIONATE] | 1
C[C@H]1CC2C3CCC4=CC(=O)C=CC4(C)[C@@]3(F)[C@@H](O)CC2(C)[C@@]1(OC(=O)CC1CC1)C(=O)CCl (stereo not given in full) | 1.1
COCCC(=O)O[C@]1(C(=O)CCl)[C@@H](C)CC2C3CCC4=CC(=O)C=CC4(C)[C@@]3(F)[C@@H](O)CC21C (stereo not given in full) | 0.05
C[C@H]1CC2C3CCC4=CC(=O)C=CC4(C)[C@@]3(F)[C@@H](O)CC2(C)[C@@]1(OC(=O)CCCCl)C(=O)CCl (stereo not given in full) | 0.12
C[C@H]1CC2C3CCC4=CC(=O)C=CC4(C)[C@@]3(F)[C@@H](O)CC2(C)[C@@]1(OC(=O)C1CC1)C(=O)CCl (stereo not given in full) | 1.3
CCC(=O)OCC(=O)[C@@]1(OC(=O)CC)[C@@H](C)C[C@H]2[C@@H]3CCC4=CC(=O)C=C[C@]4(C)[C@@]3(F)[C@@H](O)C[C@@]21C [BETAMETHASONE DIPROPIONATE] | 0.03
CSCC(=O)O[C@]1(C(=O)CCl)[C@@H](C)CC2C3CCC4=CC(=O)C=CC4(C)[C@@]3(F)[C@@H](O)CC21C (stereo not given in full) | 0.35
CC(=O)OCCC(=O)O[C@]1(C(=O)CCl)[C@@H](C)CC2C3CCC4=CC(=O)C=CC4(C)[C@@]3(F)[C@@H](O)CC21C (stereo not given in full) | 0.015

tested on: not listed separately; assay: It is the ratio of topical(edema inhibition) to systemic (thymolysis) activities.; assay type: functional

SMILES | Ratio
CCC(=O)O[C@]1(C(=O)CCl)[C@@H](C)C[C@H]2[C@@H]3CCC4=CC(=O)C=C[C@]4(C)[C@@]3(F)[C@@H](O)C[C@@]21C [CLOBETASOL PROPIONATE] | 1
C[C@H]1CC2C3CCC4=CC(=O)C=CC4(C)[C@@]3(F)[C@@H](O)CC2(C)[C@@]1(OC(=O)CC1CC1)C(=O)CCl (stereo not given in full) | 0.46
COCCC(=O)O[C@]1(C(=O)CCl)[C@@H](C)CC2C3CCC4=CC(=O)C=CC4(C)[C@@]3(F)[C@@H](O)CC21C (stereo not given in full) | 7.6
C[C@H]1CC2C3CCC4=CC(=O)C=CC4(C)[C@@]3(F)[C@@H](O)CC2(C)[C@@]1(OC(=O)CCCCl)C(=O)CCl (stereo not given in full) | 5.5
C[C@H]1CC2C3CCC4=CC(=O)C=CC4(C)[C@@]3(F)[C@@H](O)CC2(C)[C@@]1(OC(=O)C1CC1)C(=O)CCl (stereo not given in full) | 0.34
COC(=O)CCC(=O)O[C@]1(C(=O)CCl)[C@@H](C)CC2C3CCC4=CC(=O)C=CC4(C)[C@@]3(F)[C@@H](O)CC21C (stereo not given in full) | > 130
CSCC(=O)O[C@]1(C(=O)CCl)[C@@H](C)CC2C3CCC4=CC(=O)C=CC4(C)[C@@]3(F)[C@@H](O)CC21C (stereo not given in full) | 1
CC(=O)OCCC(=O)O[C@]1(C(=O)CCl)[C@@H](C)CC2C3CCC4=CC(=O)C=CC4(C)[C@@]3(F)[C@@H](O)CC21C (stereo not given in full) | 18.6

species: Mus musculus; assay: Anti-inflammatory activity in mouse croton oil ear assay relative to clobetasol propionate; assay type: functional

SMILES | Fold_activity
CCOC(=O)CCCC(=O)O[C@]1(C(=O)CCl)[C@@H](C)CC2C3CCC4=CC(=O)C=CC4(C)[C@@]3(F)[C@@H](O)CC21C (stereo not given in full) | 0.68
CCC(=O)O[C@]1(C(=O)CCl)[C@@H](C)C[C@H]2[C@@H]3CCC4=CC(=O)C=C[C@]4(C)[C@@]3(F)[C@@H](O)C[C@@]21C [CLOBETASOL PROPIONATE] | 1
C[C@H]1CC2C3CCC4=CC(=O)C=CC4(C)[C@@]3(F)[C@@H](O)CC2(C)[C@@]1(OC(=O)CC1CC1)C(=O)CCl (stereo not given in full) | 0.51
COCCC(=O)O[C@]1(C(=O)CCl)[C@@H](C)CC2C3CCC4=CC(=O)C=CC4(C)[C@@]3(F)[C@@H](O)CC21C (stereo not given in full) | 0.38
C[C@H]1CC2C3CCC4=CC(=O)C=CC4(C)[C@@]3(F)[C@@H](O)CC2(C)[C@@]1(OC(=O)CCCCl)C(=O)CCl (stereo not given in full) | 0.66
CCOC(=O)CCC(=O)O[C@]1(C(=O)CCl)[C@@H](C)CC2C3CCC4=CC(=O)C=CC4(C)[C@@]3(F)[C@@H](O)CC21C (stereo not given in full) | 0.56
C[C@H]1CC2C3CCC4=CC(=O)C=CC4(C)[C@@]3(F)[C@@H](O)CC2(C)[C@@]1(OC(=O)CCC#N)C(=O)CCl (stereo not given in full) | 0.07
C[C@H]1CC2C3CCC4=CC(=O)C=CC4(C)[C@@]3(F)[C@@H](O)CC2(C)[C@@]1(OC(=O)CCl)C(=O)CCl (stereo not given in full) | 0.25
C[C@H]1CC2C3CCC4=CC(=O)C=CC4(C)[C@@]3(F)[C@@H](O)CC2(C)[C@@]1(OC(=O)C1CC1)C(=O)CCl (stereo not given in full) | 0.44
COCC(=O)O[C@]1(C(=O)CCl)[C@@H](C)CC2C3CCC4=CC(=O)C=CC4(C)[C@@]3(F)[C@@H](O)CC21C (stereo not given in full) | 0.11
C[C@H]1CC2C3CCC4=CC(=O)C=CC4(C)[C@@]3(F)[C@@H](O)CC2(C)[C@@]1(OC(=O)CCC(=O)O)C(=O)CCl (stereo not given in full) | <0.01
COC(=O)CCCC(=O)O[C@]1(C(=O)CCl)[C@@H](C)CC2C3CCC4=CC(=O)C=CC4(C)[C@@]3(F)[C@@H](O)CC21C (stereo not given in full) | 0.45
COC(=O)CCC(=O)O[C@]1(C(=O)CCl)[C@@H](C)CC2C3CCC4=CC(=O)C=CC4(C)[C@@]3(F)[C@@H](O)CC21C (stereo not given in full) | 1.3
CC(C)OC(=O)CCC(=O)O[C@]1(C(=O)CCl)[C@@H](C)CC2C3CCC4=CC(=O)C=CC4(C)[C@@]3(F)[C@@H](O)CC21C (stereo not given in full) | 0.11
CSCC(=O)O[C@]1(C(=O)CCl)[C@@H](C)CC2C3CCC4=CC(=O)C=CC4(C)[C@@]3(F)[C@@H](O)CC21C (stereo not given in full) | 0.35
CC(=O)OCCC(=O)O[C@]1(C(=O)CCl)[C@@H](C)CC2C3CCC4=CC(=O)C=CC4(C)[C@@]3(F)[C@@H](O)CC21C (stereo not given in full) | 0.28
C[C@H]1CC2C3CCC4=CC(=O)C=CC4(C)[C@@]3(F)[C@@H](O)CC2(C)[C@@]1(OC(=O)CCC(=O)OC(C)(C)C)C(=O)CCl (stereo not given in full) | 0.19

target: T1, Glucocorticoid receptor (Rattus norvegicus, UniProt P06536); assay: Competitive displacement of [3H]dexamethasone from glucocorticoid receptor of rat liver cytosol
T1 sequence (P06536 whole entry): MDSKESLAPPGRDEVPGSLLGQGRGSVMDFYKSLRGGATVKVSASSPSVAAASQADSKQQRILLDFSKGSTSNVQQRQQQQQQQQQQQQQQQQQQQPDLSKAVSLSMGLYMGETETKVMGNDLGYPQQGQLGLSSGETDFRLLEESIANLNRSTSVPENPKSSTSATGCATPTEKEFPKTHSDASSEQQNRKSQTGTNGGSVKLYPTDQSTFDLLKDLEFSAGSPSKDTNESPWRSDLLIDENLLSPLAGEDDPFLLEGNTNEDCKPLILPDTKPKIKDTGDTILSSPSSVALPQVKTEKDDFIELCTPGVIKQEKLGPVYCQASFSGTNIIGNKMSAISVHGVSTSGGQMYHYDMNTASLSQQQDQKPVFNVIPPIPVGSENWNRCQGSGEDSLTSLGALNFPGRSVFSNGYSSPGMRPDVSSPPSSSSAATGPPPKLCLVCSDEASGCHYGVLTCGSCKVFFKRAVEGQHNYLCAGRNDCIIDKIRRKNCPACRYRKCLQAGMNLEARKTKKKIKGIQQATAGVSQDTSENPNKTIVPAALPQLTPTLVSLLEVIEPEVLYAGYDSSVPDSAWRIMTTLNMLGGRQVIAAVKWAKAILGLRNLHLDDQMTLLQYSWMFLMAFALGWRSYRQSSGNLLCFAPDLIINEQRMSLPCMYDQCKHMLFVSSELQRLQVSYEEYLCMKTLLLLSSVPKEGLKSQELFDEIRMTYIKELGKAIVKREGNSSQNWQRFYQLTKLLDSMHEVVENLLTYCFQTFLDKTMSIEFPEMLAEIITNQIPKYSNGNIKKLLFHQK

IC50 | SMILES
3.17 nM | CCC(=O)O[C@]1(C(=O)CCl)[C@@H](C)C[C@H]2[C@@H]3CCC4=CC(=O)C=C[C@]4(C)[C@@]3(F)[C@@H](O)C[C@@]21C [CLOBETASOL PROPIONATE]
> 150 nM | C[C@H]1CC2C3CCC4=CC(=O)C=CC4(C)[C@@]3(F)[C@@H](O)CC2(C)[C@@]1(OC(=O)CCC(=O)O)C(=O)CCl (stereo not given in full)
12.1 nM | CC(C)OC(=O)CCC(=O)O[C@]1(C(=O)CCl)[C@@H](C)CC2C3CCC4=CC(=O)C=CC4(C)[C@@]3(F)[C@@H](O)CC21C (stereo not given in full)
10.8 nM | C[C@H]1CC2C3CCC4=CC(=O)C=CC4(C)[C@@]3(F)[C@@H](O)CC2(C)[C@@]1(OC(=O)CCC(=O)OC(C)(C)C)C(=O)CCl (stereo not given in full)

SMILES | IC50
CCOC(=O)CCCC(=O)O[C@]1(C(=O)CCl)[C@@H](C)CC2C3CCC4=CC(=O)C=CC4(C)[C@@]3(F)[C@@H](O)CC21C (stereo not given in full) | 9.68 nM
COC(=O)CCC(=O)O[C@]1(C(=O)CCl)[C@@H](C)CC2C3CCC4=CC(=O)C=CC4(C)[C@@]3(F)[C@@H](O)CC21C (stereo not given in full) | 5.18 nM

species: Rattus norvegicus; assay: The thymolytic activity was measured relative to clobetasol propionate (CP=1) in rat granuloma pouch assay system; granuloma inhibition or thymolytic activity was not detected up to 100 ug/pouch; assay type: functional

SMILES | Thymolysis
COC(=O)CCC(=O)O[C@]1(C(=O)CCl)[C@@H](C)CC2C3CCC4=CC(=O)C=CC4(C)[C@@]3(F)[C@@H](O)CC21C (stereo not given in full) | < 0.01
